This passage reports IC50 results from patent publication US7528132B2, “Kinase inhibitors” (Schering Corporation, priority 2005, dated 2009).

The target in this experiment is T1, Akt1 (Homo sapiens, UniProt P31749).
T1 construct: made in house; host or cells: Sf9 insect cells (baculovirus, pBlueBacHis2B)
The experiment can be described thus: Akt1 kinase assay (33P phosphorylation of biotinylated peptide, Flash plates). It is filed as biochemical. The procedure, abridged:
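Sf9-expressed, Ni-NTA-purified N-terminal His6/Xpress-tagged human Akt1 (okadaic acid-treated cells) phosphorylates biotinylated GSK3-derived peptide Bio-ahx-RPRAASF (5 μM solution) at room temperature in 50 mM Tris-HCl pH 7.5, 10 mM MgCl2, 1 mM TCEP, 0.1 mM vanadate, 0.02% BSA. ³³P-labelled peptide captured on streptavidin Flash plates; compounds added in 10% Me2SO.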

The mark [1] stands for this setting: read-out: IC50 rating (AKT1 inhibition).

Read-outs that look alike come from different tables or passages of the source.

T1 sequence (P31749 whole entry): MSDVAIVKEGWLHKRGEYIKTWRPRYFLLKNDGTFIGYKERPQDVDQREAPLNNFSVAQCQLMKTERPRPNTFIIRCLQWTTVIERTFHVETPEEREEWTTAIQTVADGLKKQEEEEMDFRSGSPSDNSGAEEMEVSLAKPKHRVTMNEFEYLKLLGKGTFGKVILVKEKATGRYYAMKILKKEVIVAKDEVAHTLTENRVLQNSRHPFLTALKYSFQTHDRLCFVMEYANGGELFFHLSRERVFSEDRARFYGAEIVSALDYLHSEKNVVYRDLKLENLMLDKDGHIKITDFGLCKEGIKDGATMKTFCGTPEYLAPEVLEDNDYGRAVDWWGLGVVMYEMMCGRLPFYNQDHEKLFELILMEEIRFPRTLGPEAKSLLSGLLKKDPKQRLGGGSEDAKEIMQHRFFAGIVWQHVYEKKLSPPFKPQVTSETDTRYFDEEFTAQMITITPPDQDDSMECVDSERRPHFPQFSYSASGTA

The term IC50 denotes the point on the concentration scale where inhibition reaches its midpoint. With `Cc1n[nH]c2ccc(-c3nnc(N)c(N4CCN[C@@H](C(C)(C)C)C4)n3)cc12` [Compound 81, 6-amino-3-(3-methylindazol-5-yl)-5-[(S)-3-tert-butylpiperazin-1-yl]-[1,2,4]triazine], the IC50 under setting [1] was under 100 nM.
For the compound `Cc1n[nH]c2ccc(-c3nnc(N)c(N4CCNC5(CCCCC5)C4)n3)cc12` [Compound 82, 6-amino-5-(1,4-diaza-spiro[5.5]undec-4-yl)-3-(3-methylindazol-5-yl)-[1,2,4]triazine], under setting [1], the IC50 lay within 100 to 1000 nM.
Regarding `Cc1n[nH]c2ccc(-c3nnc(N)c(N4CCC(N)C4)n3)cc12` (stereo not drawn) [Compound 83, 6-amino-5-(3-aminopyrrolidin-1-yl)-3-(3-methylindazol-5-yl)-[1,2,4]triazine], the half-inhibitory concentration (IC50) under setting [1] lay in the range of 100 to 1000 nM.
Still for that read-out and setting: the result for `CNC1CCN(c2nc(-c3ccc4[nH]nc(C)c4c3)nnc2N)C1` (stereo not drawn) [Compound 84, 6-amino-5-(3-methylaminopyrrolidin-1-yl)-3-(3-methylindazol-5-yl)-[1,2,4]triazine] reads 100 to 1000 nM.
Same read-out and setting: the result for `Cc1n[nH]c2ccc(-c3nnc(N)c(N4CCNC5(CCCC5)C4)n3)cc12` [Compound 85, 6-amino-5-(6,9-diaza-spiro[4.5]dec-9-yl)-3-(3-methylindazol-5-yl)-[1,2,4]triazine] reads 100 to 1000 nM.
`Cc1n[nH]c2ccc(-c3nnc(CCc4ccccc4)c(N4CCNCC4)n3)cc12` [Compound 92, 3-(3-methylindazol-5-yl)-6-phenethyl-5-(piperazin-1-yl)-[1,2,4]triazine]: under setting [1], the IC50 was under 100 nM.
For the compound `Cc1n[nH]c2ccc(-c3nnc(CCc4ccccc4)c(N4CCN[C@@H](C(C)C)C4)n3)cc12` [Compound 93, 5-[(S)-3-isopropylpiperazin-1-yl]-3-(3-methylindazol-5-yl)-6-phenethyl-[1,2,4]triazine], the IC50 (read-out: IC50 (AKT1 inhibition)) was determined as 1.36 nM and the IC50 under setting [1] was under 100 nM.
For the compound `CCC[C@H]1CN(c2nc(-c3ccc4[nH]nc(C)c4c3)nnc2CCc2ccccc2)CCN1` [Compound 94, 3-(3-methylindazol-5-yl)-6-phenethyl-5-[(S)-3-propylpiperazin-1-yl]-[1,2,4]triazine], the IC50 under setting [1] was under 100 nM.
